# Results from ChEMBL document CHEMBL5233258, “Recent developments of gallic acid derivatives and their hybrids in medicinal chemistry: A review” (Eur J Med Chem, 2020).
# How the values were obtained:
# HeLa = test: Anticancer activity against human HeLa cells assessed as inhibition of cell growth incubated for 24 hrs by MTT assay; assay type: functional, cell-based
# MCF7 [1] = test: Cytotoxicity against human MCF7 cells assessed as reduction in cell viability incubated for 72 hrs by MTT assay; assay type: functional, cell-based; conditions: MCF7, 72 h
# HCT-116 [2] = test: Cytotoxicity against human HCT-116 cells assessed as reduction in cell viability incubated for 72 hrs by MTT assay; assay type: functional, cell-based; conditions: HCT-116, 72 h
# [3] = system: Mycobacterium tuberculosis; test: Antitubercular activity against Mycobacterium tuberculosis H37 Rv ATCC 27294 incubated for 7 days by Alamar blue assay; assay type: functional; conditions: H37 Rv ATCC 27294, 168 h, time 7 day
# Rattus norvegicus = organism: Rattus norvegicus; test: Inhibition of tert-butylhydroperoxide induced lipid peroxidation in rat liver microsomes; assay type: functional, Microsome
# [4] = system: Corynebacterium ammoniagenes; test: Bactericidal activity against Brevibacterium ammoniagenes ATCC 6872 assessed as inhibition of bacterial growth incubated for 48 hrs by broth macrodilution method; assay type: functional
# Staphylococcus aureus [5] = test: Bactericidal activity against Staphylococcus aureus ATCC 12598 assessed as inhibition of bacterial growth incubated for 48 hrs by broth macrodilution method; assay type: functional
# Staphylococcus aureus [6] = test: Antibacterial activity against Staphylococcus aureus ATCC 12598 assessed as inhibition of bacterial growth incubated for 48 hrs by broth macrodilution method; assay type: functional
# Bacillus subtilis [7] = test: Bactericidal activity against Bacillus subtilis ATCC 9372 assessed as inhibition of bacterial growth incubated for 48 hrs by broth macrodilution method; assay type: functional
# Bacillus subtilis [8] = test: Antibacterial activity against Bacillus subtilis ATCC 9372 assessed as inhibition of bacterial growth incubated for 48 hrs by broth macrodilution method; assay type: functional
# [9] = system: Corynebacterium ammoniagenes; test: Antibacterial activity against Brevibacterium ammoniagenes ATCC 6872 assessed as inhibition of bacterial growth incubated for 48 hrs by broth macrodilution method; assay type: functional
# Micrococcus luteus [10] = test: Bactericidal activity against Micrococcus luteus ATCC 4698 assessed as inhibition of bacterial growth incubated for 48 hrs by broth macrodilution method; assay type: functional
# Micrococcus luteus [11] = test: Antibacterial activity against Micrococcus luteus ATCC 4698 assessed as inhibition of bacterial growth incubated for 48 hrs by broth macrodilution method; assay type: functional
# [12] = Inhibition of recombinant HIV-1 integrase using 32-P labeled dBY-1 as substrate assessed as disintegration of substrate incubated for 1 hrs; parameters: species or system Human immunodeficiency virus 1
# HCT-116 [13] = test: Anticancer activity against human HCT-116 cells assessed as inhibition of cell growth incubated for 24 hrs by MTT assay; assay type: functional, cell-based; conditions: HCT-116, 24 h
# Bacillus subtilis [14] = test: Antibacterial activity against Bacillus subtilis ATCC 6633 by Mueller-Hinton broth method; assay type: functional
# Bacillus subtilis [15] = test: Bactericidal activity against Bacillus subtilis ATCC 6633 by Mueller-Hinton broth method; assay type: functional
# [16] = Antioxidant activity assessed as ABTS radical scavenging activity; assay type: functional
# [17] = Antioxidant activity assessed as DPPH radical scavenging activity measured after 30 mins by spectrophotometric analysis; assay type: functional
# [18] = Antioxidant activity assessed as DPPH radical scavenging activity; assay type: functional
# [19] = Antioxidant activity assessed as DPPH radical scavenging activity measured after 30 mins; assay type: functional
# HCT-116 [20] = test: Cytotoxicity against human HCT-116 cells by MTT assay; assay type: functional, cell-based
# HepG2 = test: Cytotoxicity against human HepG2 cells by MTT assay; assay type: functional, cell-based
# Pseudomonas aeruginosa = test: Antibacterial activity against Pseudomonas aeruginosa assessed as zone of inhibition incubated for 24 hrs by agar diffusion method; assay type: functional; further: test concentration or dose not given here
# Escherichia coli = test: Antibacterial activity against Escherichia coli assessed as zone of inhibition incubated for 24 hrs by agar diffusion method; assay type: functional; further: test concentration or dose not given here
# MCF7 [21] = test: Anticancer activity against human MCF7 cells assessed as inhibition of cell growth incubated for 24 hrs by MTT assay; assay type: functional, cell-based; conditions: MCF7, 24 h
compound,measurement,setting,value
N#Cc1c(NC(=O)c2cc(O)c(O)c(O)c2)sc2c1CCC2,IC50,HeLa,59.4 µg/mL
COc1cc(/C=C/C(=O)CC(=O)/C=C/c2ccc(O)c(OC)c2)ccc1O [CURCUMIN],IC50,MCF7 [1],13.7 µM
same,IC50,HCT-116 [2],34.7 µM
NNC(=O)c1ccncc1 [ISONIAZID],MIC,[3],0.56 µg/mL
O=C(OC[C@H]1O[C@@H](Oc2c(-c3ccc(O)c(O)c3)oc3cc(O)cc(O)c3c2=O)[C@H](O)[C@@H](O)[C@@H]1O)c1cc(O)c(O)c(O)c1,IC50,Rattus norvegicus,6.64 µM
COc1cccc(OC)c1C(=O)N[C@@H]1C(=O)N2[C@@H]1SC(C)(C)[C@@H]2C(=O)O [METHICILLIN],MBC,[4],25 µg/mL
same,MBC,Staphylococcus aureus [5],> 6.25 µg/mL
same,MIC,Staphylococcus aureus [6],1.56 µg/mL
same,MBC,Bacillus subtilis [7],6.25 µg/mL
same,MIC,Bacillus subtilis [8],1.56 µg/mL
same,MIC,[9],25 µg/mL
same,MBC,Micrococcus luteus [10],6.25 µg/mL
same,MIC,Micrococcus luteus [11],6.25 µg/mL
Cc1nnc(C(=O)NC(C)(C)c2nc(C(=O)NCc3ccc(F)cc3)c(O)c(=O)n2C)o1 [RALTEGRAVIR],IC50,[12],35.2 µM
O=C(O)c1cc(O)c(O)c(O)c1 [GALLIC ACID],IC50,HCT-116 [13],41.8 µg/mL
same,IC50,HeLa,26.3 µg/mL
CCCCCCCCCC[N+]1(C)CCCCC1,MIC,Bacillus subtilis [14],1000 µM
same,MBC,Bacillus subtilis [15],1000 µM
O=C1O[C@H]([C@@H](O)CO)C(O)=C1O [ASCORBIC ACID],IC50,[16],30.1 µM
same,IC50,[17],981 µM
same,IC50,[18],18 µM
same,IC50,[19],2.26 µg/mL
COc1ccc(C2CC(c3ccc(OC)c(OC)c3)=NN2C(=O)c2cc(O)c(O)c(O)c2)cc1 (configuration not stated),IC50,HCT-116 [20],18.6 µg/mL
same,IC50,HepG2,8.4 µg/mL
O=C(O)c1cc(OCCNC(=O)c2cc(OCCNC(=O)c3cc(OCNC(=O)c4cc(O)c(O)c(O)c4)cc(OCNC(=O)c4cc(O)c(O)c(O)c4)c3)cc(OCCNC(=O)c3cc(OCNC(=O)c4cc(O)c(O)c(O)c4)cc(OCNC(=O)c4cc(O)c(O)c(O)c4)c3)c2)cc(OCCNC(=O)c2ccc(OCCNC(=O)c3cc(OCNC(=O)c4cc(O)c(O)c(O)c4)cc(OCNC(=O)c4cc(O)c(O)c(O)c4)c3)c(OCCNC(=O)c3cc(OCNC(=O)c4cc(O)c(O)c(O)c4)cc(OCNC(=O)c4cc(O)c(O)c(O)c4)c3)c2)c1,ED50,[18],4.7 µM
COc1cc(C(=O)N/N=C/c2cc3ccccc3[nH]2)cc(OC)c1OC,inhibition zone (IZ),Pseudomonas aeruginosa,17 mm
same,inhibition zone (IZ),Escherichia coli,17 mm
O=C(N/N=C/c1c[nH]c2ccc(Cl)cc12)c1cc(O)c(O)c(O)c1,IC50,[17],189 µM
same,IC50,MCF7 [1],6.7 µM
same,IC50,HCT-116 [2],19.2 µM
COc1cc(/C=C\c2cc3c(cc2OC(C)=O)CC[C@@H]2[C@@H]3CC[C@]3(C)[C@@H](OC(C)=O)CC[C@@H]23)cc(OC)c1OC,IC50,MCF7 [21],7.5 µM
N#Cc1c(NC(=O)c2cc(O)c(O)c(O)c2)sc2c1CCCCC2,IC50,HCT-116 [13],3.2 µg/mL
O=C(/C=C/c1ccc(O)c(O)c1)O[C@@H]1C[C@](O)(C(=O)O)C[C@@H](OC(=O)/C=C/c2ccc(O)c(O)c2)[C@H]1O,IC50,[12],5.53 µM
CCCCCCCCCCCC[N+](C)(C)CC(=O)O,IC50,[17],4690 µM
same,MIC,Bacillus subtilis [14],1100 µM
same,MBC,Bacillus subtilis [15],1100 µM
Oc1cc(-c2nnc(Cc3nnc(-c4cc(O)c(O)c(O)c4)o3)o2)cc(O)c1O,IC50,[16],24.7 µM
same,IC50,[18],14.8 µM
COc1ccc(/C=C\c2cc(OC)c(OC)c(OC)c2)cc1O [COMBRETASTATIN A4],IC50,MCF7 [21],0.01 µM
COc1cc(C(=O)N/N=C/c2c(CO)cnc(C)c2O)cc(OC)c1OC,inhibition zone (IZ),Pseudomonas aeruginosa,17 mm
same,inhibition zone (IZ),Escherichia coli,17 mm
Oc1cc(-c2nnc(CC(O)(Cc3nnc(-c4cc(O)c(O)c(O)c4)o3)c3nnco3)o2)cc(O)c1O,IC50,[16],125 µM
same,IC50,[18],16 µM
COc1ccc(C2=NN(C(=O)c3cc(O)c(O)c(O)c3)C(c3ccc(C#N)cc3)C2)cc1OC (configuration not stated),IC50,HCT-116 [20],31.5 µg/mL
same,IC50,HepG2,15.2 µg/mL
Cc1c(C)c2c(c(C)c1O)CCC(C)(C(=O)O)O2 (configuration not stated) [TROLOX],IC50,[18],30.6 µM
C/C(=N/NC(=O)c1cc(O)c(O)c(O)c1)c1cc(Br)ccc1O,IC50,[19],1.14 µg/mL
